Data published in patent US20230398130A1, “METHODS AND COMPOSITIONS FOR DIFFERENTIATING STEM CELLS” (Massachusetts Institute of Technology, priority 2020, published 2023).

Legend:
ISC-enriched organoids [1] = test: Primary screen, 384-well 2.5-D organoid differentiation (ENR+CD, 6 days, Target Selective Inhibitor Library, vs whole-plate median): ATP (CellTiter-Glo 3D, CTG); conditions: for SSMD.CTG: strictly standardized mean difference; for Dose.FC.CTG: FC vs plate median
ISC-enriched organoids [2] = test: Primary screen, 384-well 2.5-D organoid differentiation (ENR+CD, 6 days): carbachol-induced lysozyme secretion (LYZ.S); assay type: cell-based, murine; conditions: for Z.LYZ.S: standard z score; for SSMD.LYZ.S: strictly standardized mean difference; for Dose.FC.LYZ.S: FC vs plate median
Excerpt: (§1) High-throughput screening.

ISC-enriched organoids [3] = test: Primary screen, 384-well 2.5-D organoid differentiation (ENR+CD, 6 days): basal lysozyme secretion (LYZ.NS); assay type: cell-based, murine; conditions: for SSMD.LYZ.NS: strictly standardized mean difference; for Dose.FC.LYZ.NS: FC vs plate median
Excerpt: as §1

[4] = Dose 0.08 uM, primary screen, standard z score
[5] = Dose 0.40 uM, primary screen, standard z score
[6] = Dose 2.00 uM, primary screen, standard z score
[7] = Dose 10.00 uM, primary screen, standard z score
[8] = primary screen, 1st of the 4 dose lines of the treatment (dose not given)
[9] = primary screen, 2nd of the 4 dose lines of the treatment (dose not given)
[10] = primary screen, 3rd of the 4 dose lines of the treatment (dose not given)
[11] = primary screen, 4th of the 4 dose lines of the treatment (dose not given)
[12] = Dose 0.08 uM, standard z score of FC
[13] = Dose 0.40 uM, standard z score of FC
[14] = Dose 2.00 uM, standard z score of FC
[15] = Dose 10.00 uM, standard z score of FC
[16] = primary screen, dose 0.08 uM, ENR+CD 6 days
[17] = primary screen, dose 0.08 uM, standard z score of FC
[18] = primary screen, dose 0.40 uM, ENR+CD 6 days
[19] = primary screen, dose 0.40 uM, standard z score of FC
[20] = primary screen, dose 2.00 uM, ENR+CD 6 days
[21] = primary screen, dose 2.00 uM, standard z score of FC
[22] = primary screen, dose 10.00 uM, ENR+CD 6 days
[23] = primary screen, dose 10.00 uM, standard z score of FC

Compound `C#Cc1cccc(Nc2ncnc3cc4c(cc23)OCCOCCOCCO4)c1` [Icotinib] has a Z.CTG (ISC-enriched organoids [1]; [4]) of −0.047, a Z.CTG (ISC-enriched organoids [1]; [5]) of −0.146 and a Z.CTG (ISC-enriched organoids [1]; [6]) of −0.970. The Z.CTG (ISC-enriched organoids [1]; [7]) was −2.552, the SSMD.CTG (ISC-enriched organoids [1]; [8]) was −0.065 and the SSMD.CTG (ISC-enriched organoids [1]; [9]) was −0.162. It also gave an SSMD.CTG (ISC-enriched organoids [1]; [10]) of −0.865, an SSMD.CTG (ISC-enriched organoids [1]; [11]) of −3.189 and a Z.LYZ.S (ISC-enriched organoids [2]; [8]) of 0.609. It also gave a Z.LYZ.S (ISC-enriched organoids [2]; [9]) of −0.583, a Z.LYZ.S (ISC-enriched organoids [2]; [10]) of −1.572 and a Z.LYZ.S (ISC-enriched organoids [2]; [11]) of −2.708. For the same compound, the SSMD.LYZ.S (ISC-enriched organoids [2]; [8]) was 0.689, the SSMD.LYZ.S (ISC-enriched organoids [2]; [9]) was −0.544 and the SSMD.LYZ.S (ISC-enriched organoids [2]; [10]) was −1.726. The SSMD.LYZ.S (ISC-enriched organoids [2]; [11]) was −1.917, the SSMD.LYZ.NS (ISC-enriched organoids [3]; [8]) was 0.227 and the SSMD.LYZ.NS (ISC-enriched organoids [3]; [9]) was −0.710. For the same compound, the SSMD.LYZ.NS (ISC-enriched organoids [3]; [10]) was −1.321 and the SSMD.LYZ.NS (ISC-enriched organoids [3]; [11]) was −2.654.
`CCc1cc(Nc2nccc(-c3c(-c4ccc(OC)c(C(=O)Nc5c(F)cccc5F)c4)nc4ccccn34)n2)c(OC)cc1N1CCC(N2CCN(S(C)(=O)=O)CC2)CC1` [GSK1904529A] gave a Dose.FC.CTG (ISC-enriched organoids [1]; Dose 0.08 uM, primary screen) of 0.202 log 2 fold change, a Z.CTG (ISC-enriched organoids [1]; [4]) of 0.484 and a Dose.FC.CTG (ISC-enriched organoids [1]; Dose 0.40 uM, primary screen) of −0.071 log 2 fold change. The Z.CTG (ISC-enriched organoids [1]; [5]) was −0.170, the Dose.FC.CTG (ISC-enriched organoids [1]; Dose 2.00 uM, primary screen) was −0.570 log 2 fold change and the Z.CTG (ISC-enriched organoids [1]; [6]) was −1.361. For the same compound, the Dose.FC.CTG (ISC-enriched organoids [1]; Dose 10.00 uM, primary screen) was −0.691 log 2 fold change, the Z.CTG (ISC-enriched organoids [1]; [7]) was −1.649 and the Dose.FC.LYZ.S (ISC-enriched organoids [2]; Dose 0.08 uM, primary screen) was 0.133 log 2 fold change. For the same compound, the Dose.FC.LYZ.S (ISC-enriched organoids [2]; Dose 0.40 uM, primary screen) was −0.047 log 2 fold change, the Dose.FC.LYZ.S (ISC-enriched organoids [2]; Dose 2.00 uM, primary screen) was −0.225 log 2 fold change and the Dose.FC.LYZ.S (ISC-enriched organoids [2]; Dose 10.00 uM, primary screen) was −0.276 log 2 fold change. It also gave a Dose.FC.LYZ.NS (ISC-enriched organoids [3]; Dose 0.08 uM, primary screen) of 0.102 log 2 fold change, a Z.LYZ.NS (ISC-enriched organoids [3]; [4]) of 0.890 and a Dose.FC.LYZ.NS (ISC-enriched organoids [3]; Dose 0.40 uM, primary screen) of 0.112 log 2 fold change. For the same compound, the Z.LYZ.NS (ISC-enriched organoids [3]; [5]) was 0.977, the Dose.FC.LYZ.NS (ISC-enriched organoids [3]; Dose 2.00 uM, primary screen) was −0.179 log 2 fold change and the Z.LYZ.NS (ISC-enriched organoids [3]; [6]) was −1.557. The Dose.FC.LYZ.NS (ISC-enriched organoids [3]; Dose 10.00 uM, primary screen) was −0.163 log 2 fold change and the Z.LYZ.NS (ISC-enriched organoids [3]; [7]) was −1.419.
`c1ccc(CNc2nc(NCc3ccccc3)c3ccccc3n2)cc1` [DBeQ] gave a Dose.FC.CTG (ISC-enriched organoids [1]; Dose 0.08 uM, ENR+CD, 6 days) of 0.119 log 2 fold change, a Z.CTG (ISC-enriched organoids [1]; [12]) of 0.285 and a Dose.FC.CTG (ISC-enriched organoids [1]; Dose 0.40 uM, ENR+CD, 6 days) of −0.013 log 2 fold change. For the same compound, the Z.CTG (ISC-enriched organoids [1]; [13]) was −0.031, the Dose.FC.CTG (ISC-enriched organoids [1]; Dose 2.00 uM, ENR+CD, 6 days) was 0.004 log 2 fold change and the Z.CTG (ISC-enriched organoids [1]; [14]) was 0.010. For the same compound, the Dose.FC.CTG (ISC-enriched organoids [1]; Dose 10.00 uM, ENR+CD, 6 days) was −1.133 log 2 fold change, the Z.CTG (ISC-enriched organoids [1]; [15]) was −2.706 and the Dose.FC.LYZ.S (ISC-enriched organoids [2]; Dose 0.08 uM, ENR+CD, 6 days) was 0.045 log 2 fold change. It also gave a Dose.FC.LYZ.S (ISC-enriched organoids [2]; Dose 0.40 uM, ENR+CD, 6 days) of 0.210 log 2 fold change, a Dose.FC.LYZ.S (ISC-enriched organoids [2]; Dose 2.00 uM, ENR+CD, 6 days) of −0.103 log 2 fold change and a Dose.FC.LYZ.S (ISC-enriched organoids [2]; Dose 10.00 uM, ENR+CD, 6 days) of −0.423 log 2 fold change. It also gave a Dose.FC.LYZ.NS (ISC-enriched organoids [3]; Dose 0.08 uM, ENR+CD, 6 days) of 0.097 log 2 fold change, a Z.LYZ.NS (ISC-enriched organoids [3]; [12]) of 0.844 and a Dose.FC.LYZ.NS (ISC-enriched organoids [3]; Dose 0.40 uM, ENR+CD, 6 days) of 0.064 log 2 fold change. For the same compound, the Z.LYZ.NS (ISC-enriched organoids [3]; [13]) was 0.558, the Dose.FC.LYZ.NS (ISC-enriched organoids [3]; Dose 2.00 uM, ENR+CD, 6 days) was −0.048 log 2 fold change and the Z.LYZ.NS (ISC-enriched organoids [3]; [14]) was −0.414. For the same compound, the Dose.FC.LYZ.NS (ISC-enriched organoids [3]; Dose 10.00 uM, ENR+CD, 6 days) was −0.296 log 2 fold change and the Z.LYZ.NS (ISC-enriched organoids [3]; [15]) was −2.577.
`C=CC(=O)Nc1cccc(Nc2nc(Nc3ccc(OCCOC)cc3)ncc2F)c1` [AVL-292] showed a Dose.FC.CTG (ISC-enriched organoids [1]; [16]) of 0.217 log 2 fold change, a Z.CTG (ISC-enriched organoids [1]; [17]) of 0.518 and a Dose.FC.CTG (ISC-enriched organoids [1]; [18]) of 0.057 log 2 fold change. The Z.CTG (ISC-enriched organoids [1]; [19]) was 0.135, the Dose.FC.CTG (ISC-enriched organoids [1]; [20]) was −0.058 log 2 fold change and the Z.CTG (ISC-enriched organoids [1]; [21]) was −0.138. The Dose.FC.CTG (ISC-enriched organoids [1]; [22]) was −0.778 log 2 fold change, the Z.CTG (ISC-enriched organoids [1]; [23]) was −1.859 and the Dose.FC.LYZ.S (ISC-enriched organoids [2]; [16]) was 0.235 log 2 fold change. For the same compound, the Dose.FC.LYZ.S (ISC-enriched organoids [2]; [18]) was 0.106 log 2 fold change, the Dose.FC.LYZ.S (ISC-enriched organoids [2]; [20]) was −0.206 log 2 fold change and the Dose.FC.LYZ.S (ISC-enriched organoids [2]; [22]) was −0.376 log 2 fold change. For the same compound, the Dose.FC.LYZ.NS (ISC-enriched organoids [3]; [16]) was 0.095 log 2 fold change, the Z.LYZ.NS (ISC-enriched organoids [3]; [17]) was 0.831 and the Dose.FC.LYZ.NS (ISC-enriched organoids [3]; [18]) was 0.052 log 2 fold change. For the same compound, the Z.LYZ.NS (ISC-enriched organoids [3]; [19]) was 0.451, the Dose.FC.LYZ.NS (ISC-enriched organoids [3]; [20]) was −0.112 log 2 fold change and the Z.LYZ.NS (ISC-enriched organoids [3]; [21]) was −0.979. For the same compound, the Dose.FC.LYZ.NS (ISC-enriched organoids [3]; [22]) was −0.213 log 2 fold change and the Z.LYZ.NS (ISC-enriched organoids [3]; [23]) was −1.858.
`Cc1cc2c(C(C)C)c(O)c(O)c(C=O)c2c(O)c1-c1c(C)cc2c(C(C)C)c(O)c(O)c(C=O)c2c1O` [AT101] was tested, and the Dose.FC.CTG (ISC-enriched organoids [1]; [16]) was −0.198 log 2 fold change, the Z.CTG (ISC-enriched organoids [1]; [17]) was −0.472 and the Dose.FC.CTG (ISC-enriched organoids [1]; [18]) was 0.019 log 2 fold change. The Z.CTG (ISC-enriched organoids [1]; [19]) was 0.044, the Dose.FC.CTG (ISC-enriched organoids [1]; [20]) was −0.216 log 2 fold change and the Z.CTG (ISC-enriched organoids [1]; [21]) was −0.515. It also gave a Dose.FC.CTG (ISC-enriched organoids [1]; [22]) of −0.056 log 2 fold change, a Z.CTG (ISC-enriched organoids [1]; [23]) of −0.133 and a Dose.FC.LYZ.S (ISC-enriched organoids [2]; [16]) of 0.004 log 2 fold change. For the same compound, the Dose.FC.LYZ.S (ISC-enriched organoids [2]; [18]) was −0.013 log 2 fold change, the Dose.FC.LYZ.S (ISC-enriched organoids [2]; [20]) was −0.085 log 2 fold change and the Dose.FC.LYZ.S (ISC-enriched organoids [2]; [22]) was −0.061 log 2 fold change. It also gave a Dose.FC.LYZ.NS (ISC-enriched organoids [3]; [16]) of −0.049 log 2 fold change, a Z.LYZ.NS (ISC-enriched organoids [3]; [17]) of −0.426 and a Dose.FC.LYZ.NS (ISC-enriched organoids [3]; [18]) of −0.068 log 2 fold change. The Z.LYZ.NS (ISC-enriched organoids [3]; [19]) was −0.592, the Dose.FC.LYZ.NS (ISC-enriched organoids [3]; [20]) was −0.036 log 2 fold change and the Z.LYZ.NS (ISC-enriched organoids [3]; [21]) was −0.311. For the same compound, the Dose.FC.LYZ.NS (ISC-enriched organoids [3]; [22]) was −0.052 log 2 fold change and the Z.LYZ.NS (ISC-enriched organoids [3]; [23]) was −0.452.
